The values below come from ChEMBL document CHEMBL1201862, “PubChem BioAssay data set” (2004).

Some test systems named below: UO-31; NCI-H460; LOX IMVI; TK-10; HT-29; A498; HOP-62; OVCAR-8; SK-MEL-5; CCRF-CEM; HCC 2998; K562; IGROV-1; EKVX; LXFL 529; OVCAR-3; DU-145; SR; MDA-MB-231; PC-3.
Holding throughout (experiment): growth of human tumour cells (NCI), 48 h

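Cultured in 96-well plates, cells were exposed to test compound for 48 hours across five concentrations. Abbreviation: GI50, concentration required for 50% inhibition of growth.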 The source made the active and inactive calls. Rule as the data show it: active = GI50 up to about 1.1 µM and inactive = higher. Some results are limits rather than exact numbers.

`Oc1cc(-c2ccccc2)nc2cc(Cl)ccc12`: the GI50 with UO-31 was 5.06 µM (inactive); with NCI-H460 it was 0.417 µM (active); with LOX IMVI, 0.869 µM (active); in the experiment on TK-10, 27.7 µM (inactive); in the experiment on HT-29, 2 µM (inactive); in the experiment with A498 it was 1.35 µM (inactive). Also, the GI50 is 1.31 µM (inactive) with HOP-62; 0.74 µM (active) with OVCAR-8; 0.191 µM (active) with SK-MEL-5; 0.432 µM (active) in the experiment on CCRF-CEM; 0.897 µM (active) in the experiment with HCC 2998; 0.382 µM (active) with K562. The figures for the GI50 with IGROV-1, in the experiment on EKVX and in the experiment on LXFL 529 were 0.54 µM (active), > 100 µM (inactive) and 0.805 µM (active), respectively.

In the case of `O=C1OC(CCCl)(c2ccccc2)CC1CN1CCOCC1` (stereo unspecified), the GI50 in the experiment with UO-31 was 68.9 µM (inactive); in the experiment on OVCAR-3, 17.8 µM (inactive); in the experiment with NCI-H460 it was 67.3 µM (inactive); in the experiment on LOX IMVI, 27.3 µM (inactive); in the experiment with TK-10 it was 16.4 µM (inactive); in the experiment with HT-29, 18.4 µM (inactive). Besides, the GI50 is > 100 µM (inactive) with A498; 50.5 µM (inactive) in the experiment with HOP-62; 17.7 µM (inactive) with OVCAR-8; 19.7 µM (inactive) in the experiment on SK-MEL-5; 11.4 µM (inactive) with CCRF-CEM; 26.3 µM (inactive) in the experiment on HCC 2998. In addition, the GI50 in the experiment on K562 was 14.8 µM (inactive); in the experiment on IGROV-1 it was 23.6 µM (inactive); in the experiment on EKVX, 19.9 µM (inactive); in the experiment with LXFL 529 it was 18.8 µM (inactive).

On to `O=C(CC1(O)C(=O)Nc2c(Cl)ccc(Cl)c21)c1ccc(Cl)cc1Cl` (stereo unspecified), for which the GI50 in the experiment with UO-31 was 20.7 µM (inactive); in the experiment on OVCAR-3 it was 16.2 µM (inactive); in the experiment with NCI-H460, 20.5 µM (inactive); with LOX IMVI it was 14.3 µM (inactive); with TK-10, 50.1 µM (inactive); in the experiment on HT-29, 15.3 µM (inactive). For the same compound, the GI50 in the experiment on A498 was 26.3 µM (inactive); with HOP-62, 24 µM (inactive); with OVCAR-8 it was 20.7 µM (inactive); in the experiment on HCC 2998 it was 15.7 µM (inactive); in the experiment with IGROV-1 it was 18.3 µM (inactive); with EKVX, 21.6 µM (inactive). Further, the GI50 in the experiment with LXFL 529 is 14.6 µM (inactive).

With `NCCOCn1cc(Cc2cccc(OCc3ccccc3)c2)c(=O)[nH]c1=O`, the GI50 was > 100 µM (inactive) in the experiment with UO-31; > 100 µM (inactive) in the experiment with OVCAR-3; 63.5 µM (inactive) in the experiment on NCI-H460; 39 µM (inactive) in the experiment with LOX IMVI; > 100 µM (inactive) in the experiment on TK-10; 71.1 µM (inactive) in the experiment on HT-29. Besides, the GI50 in the experiment on A498 is > 10 µM (inactive); with OVCAR-8, > 100 µM (inactive); with SK-MEL-5 it was > 100 µM (inactive); in the experiment on CCRF-CEM, 44.1 µM (inactive); in the experiment on HCC 2998 it was 42.2 µM (inactive); in the experiment on K562, 42.8 µM (inactive). The GI50 with IGROV-1, in the experiment on EKVX and with LXFL 529 was > 100 µM (inactive) throughout.

With `CCO/C(Cc1ccc(Cl)cc1)=N/NC(N)=S`, the GI50 with UO-31 is 72.9 µM (inactive); with OVCAR-3, > 100 µM (inactive); in the experiment with DU-145, > 100 µM (inactive); in the experiment with NCI-H460, > 100 µM (inactive); in the experiment with LOX IMVI, > 100 µM (inactive); with SR, > 100 µM (inactive). The GI50 in the experiment on TK-10 was > 100 µM (inactive); in the experiment on HT-29, > 100 µM (inactive); with A498, > 100 µM (inactive); in the experiment on HOP-62 it was > 100 µM (inactive); with OVCAR-8, > 100 µM (inactive); with SK-MEL-5 it was 84.5 µM (inactive). The GI50 in the experiment with MDA-MB-231 is > 100 µM (inactive); in the experiment with PC-3, > 100 µM (inactive); with CCRF-CEM, > 100 µM (inactive); with HCC 2998, > 100 µM (inactive); in the experiment with K562, 83 µM (inactive); in the experiment with IGROV-1, > 100 µM (inactive). Also, in the experiment on EKVX, the GI50 was > 100 µM (inactive).

In the case of `COc1ccc(-c2nc(N)c(C#N)c3c2CCSc2ccc(C)cc2-3)cc1OC`, the GI50 was 4.16 µM (inactive) in the experiment with UO-31; 20.7 µM (inactive) in the experiment on OVCAR-3; 14.8 µM (inactive) in the experiment with DU-145; 18.5 µM (inactive) with NCI-H460; 14.8 µM (inactive) with LOX IMVI; 2.6 µM (inactive) in the experiment with SR. Moreover, the GI50 in the experiment on TK-10 is 26.4 µM (inactive); with HT-29, 14.2 µM (inactive); in the experiment on A498 it was 22.5 µM (inactive); in the experiment on HOP-62, 42.8 µM (inactive); in the experiment on OVCAR-8, 22.4 µM (inactive); with SK-MEL-5, 6.18 µM (inactive). Besides, the GI50 in the experiment with MDA-MB-231 was 8.22 µM (inactive); with PC-3 it was 8.51 µM (inactive); with CCRF-CEM, 4.12 µM (inactive); in the experiment with HCC 2998, 16.3 µM (inactive); in the experiment on K562, 1.24 µM (inactive); in the experiment with IGROV-1 it was 23.1 µM (inactive). Also, in the experiment with EKVX, the GI50 is 17.9 µM (inactive).

Regarding `C=C1C(=O)OC2CC1C(OC(=O)/C=C/c1ccccc1)C/C(C)=C/CC/C(C)=C/CCC2(C)O` (stereo unspecified), the GI50 is 1.61 µM (inactive) in the experiment on UO-31; 1.52 µM (inactive) in the experiment on OVCAR-3; 1.68 µM (inactive) with DU-145; 1.36 µM (inactive) in the experiment with NCI-H460; 0.828 µM (active) in the experiment with LOX IMVI; 0.778 µM (active) in the experiment on SR. The GI50 in the experiment on TK-10 was 1.65 µM (inactive); with HT-29, 1.33 µM (inactive); with A498, 1.91 µM (inactive); in the experiment with HOP-62, 1.8 µM (inactive); with OVCAR-8, 1.75 µM (inactive); in the experiment on SK-MEL-5 it was 1.85 µM (inactive). The GI50 is 1.66 µM (inactive) with MDA-MB-231; 1.63 µM (inactive) in the experiment with PC-3; 0.372 µM (active) in the experiment on CCRF-CEM; 1.58 µM (inactive) in the experiment with HCC 2998; 0.906 µM (active) in the experiment on K562; 1.56 µM (inactive) in the experiment with IGROV-1. For the same compound, the GI50 in the experiment on EKVX is 1.81 µM (inactive).

`CC(C)(C)OC(=O)N(O)CCCn1cnc2c(N)ncnc21`: the GI50 in the experiment with UO-31, in the experiment on OVCAR-3, with DU-145, with NCI-H460, with LOX IMVI and with SR was > 100 µM (inactive) throughout. In addition, the GI50 in the experiment on TK-10, in the experiment with HT-29, in the experiment with A498, in the experiment with HOP-62, in the experiment with OVCAR-8 and in the experiment on SK-MEL-5 was > 100 µM (inactive) throughout. The GI50 with MDA-MB-231, with PC-3, in the experiment with CCRF-CEM, with HCC 2998, in the experiment on K562 and in the experiment on IGROV-1 was > 100 µM (inactive) each time. Further, the GI50 in the experiment with EKVX is > 100 µM (inactive).

For the compound `O=C(OCCNC(=O)N1CC1)OCCNC(=O)N1CC1`, the GI50 in the experiment on UO-31, in the experiment on OVCAR-3, with DU-145, in the experiment with NCI-H460, in the experiment on LOX IMVI and with SR was > 10 µM (inactive) each time. For the same compound, the GI50 in the experiment on TK-10, with HT-29, in the experiment on A498, with HOP-62, with OVCAR-8 and with SK-MEL-5 was > 10 µM (inactive) in each case. In addition, the GI50 in the experiment with MDA-MB-231, in the experiment with PC-3, in the experiment with CCRF-CEM, with HCC 2998, in the experiment on K562 and in the experiment on IGROV-1 was > 10 µM (inactive) each time. In addition, the GI50 in the experiment with EKVX was > 10 µM (inactive).

In the case of `CC(=O)O[C@H]1CC2C=CC3C(CCC31)O2` (stereo partly specified), the GI50 in the experiment on UO-31, in the experiment with OVCAR-3, in the experiment with NCI-H460, in the experiment on LOX IMVI, in the experiment with TK-10 and with HT-29 was > 100 µM (inactive) throughout. In addition, the GI50 in the experiment with HOP-62, with OVCAR-8, in the experiment on CCRF-CEM, with HCC 2998, in the experiment with K562 and with IGROV-1 was > 100 µM (inactive) throughout. For the same compound, the GI50 in the experiment on EKVX and in the experiment with LXFL 529 was > 100 µM (inactive) each time.

Take `Clc1cc(OC2C3CC4CC(C3)CC2C4)nc(Cl)n1` (stereo unspecified): the GI50 was 2.88 µM (inactive) with UO-31; 18.1 µM (inactive) in the experiment on OVCAR-3; 19 µM (inactive) in the experiment with DU-145; 17.7 µM (inactive) in the experiment with NCI-H460; 3.86 µM (inactive) in the experiment on LOX IMVI; 3.52 µM (inactive) in the experiment on SR. For the same compound, the GI50 in the experiment on TK-10 is 30.7 µM (inactive); in the experiment with HT-29, 15.4 µM (inactive); in the experiment on A498, 19.1 µM (inactive); in the experiment with HOP-62 it was 25.9 µM (inactive); in the experiment on OVCAR-8, 26.1 µM (inactive); with SK-MEL-5, 17.9 µM (inactive). Further, the GI50 was 13.7 µM (inactive) in the experiment with MDA-MB-231; 19.2 µM (inactive) in the experiment with PC-3; 16.7 µM (inactive) in the experiment on CCRF-CEM; 1.96 µM (inactive) in the experiment on HCC 2998; 4.62 µM (inactive) in the experiment on K562; 10.6 µM (inactive) with IGROV-1. For the same compound, the GI50 in the experiment with EKVX is 7.29 µM (inactive).

Turning to `COC(=O)C1C(=O)C(C(=O)OC)C2CCC1N2C` (stereo unspecified), the GI50 in the experiment with UO-31 is 59.8 µM (inactive); in the experiment on OVCAR-3, 18.3 µM (inactive); with DU-145, 28.8 µM (inactive); with NCI-H460 it was 48.3 µM (inactive); with LOX IMVI it was 35.4 µM (inactive); with SR, 32.1 µM (inactive). Also, the GI50 in the experiment with TK-10 is 62.4 µM (inactive); in the experiment with HT-29 it was 35 µM (inactive); in the experiment on A498, 76.9 µM (inactive); with HOP-62, 36.2 µM (inactive); with OVCAR-8, 27.9 µM (inactive); in the experiment on SK-MEL-5, > 100 µM (inactive). The GI50 in the experiment on MDA-MB-231 is 39 µM (inactive); in the experiment on PC-3, 29.4 µM (inactive); in the experiment on CCRF-CEM, 15.8 µM (inactive); with HCC 2998 it was > 100 µM (inactive); with K562 it was 31.8 µM (inactive); in the experiment on IGROV-1 it was 22.9 µM (inactive). Moreover, the GI50 in the experiment with EKVX was > 100 µM (inactive).
